Assay results: the NIST ThermoML archive (doi:10.1021/je0498356)
Numbers after ± are expanded uncertainties.

Settings: Liquid

First: O=C(O)CCCC(=O)O [1,5-pentanedioic acid]
Second: O=C(O)CCCCC(=O)O [1,6-hexanedioic acid]
The Critical pressure of the first is higher: 4270 ± 200 kPa for the first, 3850 ± 150 kPa for the second.

Compared with `O=C(O)CCCCCC(=O)O` [1,7-heptanedioic acid], `O=C(O)CCCCCCC(=O)O` [1,8-octanedioic acid] is lower in Critical pressure: 3280 ± 130 kPa for the first, 2970 ± 120 kPa for the second.

Going from `O=C(O)CCCCCCCC(=O)O` [1,9-nonanedioic acid] to `O=C(O)CCCCCCCCC(=O)O` [1,10-decanedioic acid], the Critical pressure falls from 2720 ± 110 kPa to 2500 ± 100 kPa.

First: O=C(O)CCCCCCCCCCCCC(=O)O [1,12-dodecanedicarboxylic acid]
Second: O=C(O)CCCCCCCCCCC(=O)O [1,12-dodecanedioic acid]
The Critical pressure of the first is lower: 1900 ± 80 kPa for the first, 2150 ± 90 kPa for the second.

`O=C(O)CCC(=O)O` [butanedioic acid] gave a Critical pressure of 6590 ± 300 kPa.

`O=C(O)CCCC(=O)O` [1,5-pentanedioic acid] and `O=C(O)CCCCC(=O)O` [1,6-hexanedioic acid] are within error of each other in Critical temperature: 840 ± 13 K for the first, 841 ± 13 K for the second.

`O=C(O)CCCCCC(=O)O` [1,7-heptanedioic acid] and `O=C(O)CCCCCCC(=O)O` [1,8-octanedioic acid] are within error of each other in Critical temperature: 842 ± 13 K for the first, 843 ± 13 K for the second.

`O=C(O)CCCCCCCC(=O)O` [1,9-nonanedioic acid] and `O=C(O)CCCCCCCCC(=O)O` [1,10-decanedioic acid] are within error of each other in Critical temperature: 844 ± 13 K for the first, 845 ± 13 K for the second.

`O=C(O)CCCCCCCCCCCCC(=O)O` [1,12-dodecanedicarboxylic acid] and `O=C(O)CCCCCCCCCCC(=O)O` [1,12-dodecanedioic acid] are within error of each other in Critical temperature: 862 ± 13 K for the first, 859 ± 13 K for the second.

With `O=C(O)CCC(=O)O` [butanedioic acid] the Critical temperature was 851 ± 20 K.
